# Experiments:
# Chromatographic LogD7.4 = assay type: physicochemical; conditions: pH 7.4; for chromatographic logD: gradient HPLC, Phenomenex Synergi Hydro-RP column; for gLogD7.4: chromatographically determined
# [1] = In vitro intrinsic clearance in human liver microsomes; assay type: in vitro ADME; conditions: human, liver microsomes, h CLint
# [2] = In vitro intrinsic clearance in mouse liver microsomes; assay type: in vitro ADME
# [3] = system: Chloroquine-sensitive NF54 P. falciparum isolate; assay: In vitro antiplasmodial activity, NF54; assay type: cell-based, Plasmodium falciparum; conditions: for IC50: Plasmodium falciparum, NF54, read-out: P. falciparum IC50, NF54, mean from n ≥ 2
SMILES,chromatographic logD (Chromatographic LogD7.4),microsomal CLint [1] [µL/min/mg],microsomal CLint [2] [µL/min/mg],IC50 [3] [µM],gLogD7.4 (Chromatographic LogD7.4),fold less potent than 2 (antiplasmodial) ([3]; relative to compound 2) [fold],fold more potent than 2 (antiplasmodial) ([3]; relative to compound 2),"in vitro selectivity index ([3]; antiplasmodial selectivity, L6 cytotoxicity vs P. falciparum)"
"O=C1Nc2ccccc2C(=NO)CCc2ccccc21 [Compound 10, 13-(Hydroxyimino)-5,11,12,13-tetrahydro-6H-dibenzo[b,g]azonin-6-one]",1.8,22,76,> 190,–,–,–,–
"CO/N=C1\CCc2ccccc2C(=O)Nc2ccccc21 [Compound 11, (E)-13-(Methoxyimino)-5,11,12,13-tetrahydro-6H-dibenzo[b,g]azonin-6-one]",2.5,11,54,95,–,–,–,–
"O=C1Nc2ccccc2C(O)CCc2ccccc21 (centres unmarked) [Compound 12, 13-hydroxy-5,11,12,13-tetrahydro-6H-dibenzo[b,g]azonin-6-one]",1.5,11,27,83,–,–,–,–
"O=C1Nc2ccccc2CCCc2ccccc21 [Compound 13, 5,11,12,13-Tetrahydro-6H-dibenzo[b,g]azonin-6-one]",2.6,62,81,100,–,–,–,–
"CN1C(=O)c2ccccc2CCC(=O)c2ccccc21 [Compound 14, 5-Methyl-11,12-dihydro-5H-dibenzo[b,g]azonine-6,13-dione]",2.4,110,220,77,–,–,–,–
"O=C1Oc2ccccc2C(=O)CCc2ccccc21 [Compound 16, 11,12-Dihydrodibenzo[b,g]oxonine-6,13-dione]",3.7,14,16,100,–,–,–,–
"O=C(O)c1ccc2c(c1)C(=O)CCc1ccccc1C(=O)N2 [Compound 19, 6,13-Dioxo-6,11,12,13-tetrahydro-5H-dibenzo[b,g]-azonine-2-carboxylic Acid]",< 0,12,< 7,160,–,–,–,–
"NC(=O)c1ccc2c(c1)C(=O)CCc1ccccc1C(=O)N2 [Compound 20, 6,13-Dioxo-6,11,12,13-tetrahydro-5H-dibenzo[b,g]-azonine-2-carboxamide]",0.8,< 7,10,24,–,–,–,–
"O=C1Nc2ccc(C(=O)N3CCOCC3)cc2C(=O)CCc2ccccc21 [Compound 21, 2-(Morpholine-4-carbonyl)-11,12-dihydro-5H-dibenzo[b,g]azonine-6,13-dione]",1.3,11,15,7.8,–,–,–,–
"O=C1CCc2ncccc2C(=O)Nc2ccccc21 [Compound 30, 12,13-Dihydro-5H-benzo[b]pyrido[2,3-g]azonine-5,11(6H)-dione]",0.9,19,18,9.4,–,–,–,–
"O=C1Nc2ccccc2C(=O)CCc2cc(O)ccc21 [Compound 34, 9-Hydroxy-11,12-dihydro-5H-dibenzo[b,g]azonine-6,13-dione]",1.1,61,84,15,–,–,–,–

# Stronger by IC50 [3], values ahead:
chromatographic logD (Chromatographic LogD7.4),microsomal CLint [1] [µL/min/mg],microsomal CLint [2] [µL/min/mg],IC50 [3] [µM],gLogD7.4 (Chromatographic LogD7.4),SMILES,fold less potent than 2 (antiplasmodial) ([3]; relative to compound 2) [fold],fold more potent than 2 (antiplasmodial) ([3]; relative to compound 2),"in vitro selectivity index ([3]; antiplasmodial selectivity, L6 cytotoxicity vs P. falciparum)"
1.9,14,31,0.75,–,"O=C1Nc2ccccc2C(=O)CCCc2ccccc21 [Compound 6, 6,7-Dihydrodibenzo[b,h]azecine-8,14(5H,13H)-dione]",4,–,–
2.1,< 7,18,6.2,–,"O=C1CCc2ccccc2CC(=O)c2ccccc2N1 [Compound 8, 8,13-Dihydrodibenzo[b,f]azecine-6,14(5H,7H)-dione]",33,–,–
1.9,7,14,4.6,–,"O=C1CCc2ccccc2C(=O)c2ccccc2N1 [Compound 9, 7,8-Dihydro-5H-dibenzo[b,e]azonine-6,13-dione]",–,–,–
2.1,23,440,0.037,–,"COc1ccc2c(c1)C(=O)CCc1ccccc1C(=O)N2 [Compound 17, 2-Methoxy-11,12-dihydro-5H-dibenzo[b,g]azonine-6,13-dione]",–,roughly 5 fold,–
2.1,23,20,0.7,–,"N#Cc1ccc2c(c1)C(=O)CCc1ccccc1C(=O)N2 [Compound 22, 6,13-Dioxo-6,11,12,13-tetrahydro-5H-dibenzo[b,g]-azonine-2-carbonitrile]",3.7,–,–
1.6,46,19,5.3,–,"CS(=O)(=O)c1ccc2c(c1)C(=O)CCc1ccccc1C(=O)N2 [Compound 23, 2-(Methylsulfonyl)-11,12-dihydro-5H-dibenzo[b,g]-azonine-6,13-dione]",–,–,–
2.2,38,74,0.056,–,"O=C1Nc2ccc(F)cc2C(=O)CCc2ccccc21 [Compound 24, 2-Fluoro-11,12-dihydro-5H-dibenzo[b,g]azonine-6,13-dione]",–,–,–
3,240,79,0.0094,–,"O=C1Nc2ccc(C(F)(F)F)cc2C(=O)CCc2ccccc21 [Compound 25, 2-(Trifluoromethyl)-11,12-dihydro-5H-dibenzo[b,g]-azonine-6,13-dione]",–,–,–
3.1,240,110,0.0042,> 3,"O=C1Nc2ccc(OC(F)(F)F)cc2C(=O)CCc2ccccc21 [Compound 26, 2-(Trifluoromethoxy)-11,12-dihydro-5H-dibenzo-[b,g]azonine-6,13-dione]",–,–,"> 10,000"
3.3,190,71,0.0042,> 3,"O=C1Nc2ccc(S(F)(F)(F)(F)F)cc2C(=O)CCc2ccccc21 [Compound 27, 2-(Pentafluoro-λ^6-sulfaneyl)-11,12-dihydro-5H-dibenzo[b,g]azonine-6,13-dione]",–,–,–
2,< 7,160,0.39,–,"N#Cc1ccc2c(c1)CCC(=O)c1ccccc1NC2=O [Compound 33, 6,13-Dioxo-6,11,12,13-tetrahydro-5H-dibenzo[b,g]-azonine-9-carbonitrile]",–,–,–
1.3,16,60,5.1,–,"O=C1CCc2c(O)cccc2C(=O)Nc2ccccc21 [Compound 35, 10-Hydroxy-11,12-dihydro-5H-dibenzo[b,g]azonine-6,13-dione]",–,–,–
2.1,13,43,1.3,–,"O=C1Nc2ccccc2C(=O)CCc2ccc(F)cc21 [Compound 36, 8-Fluoro-11,12-dihydro-5H-dibenzo[b,g]azonine-6,13-dione]",–,–,–
1.2,7,36,1.1,–,"O=C1Nc2ccccc2C(=O)CCc2ccc(O)cc21 [Compound 37, 8-Hydroxy-11,12-dihydro-5H-dibenzo[b,g]azonine-6,13-dione]",–,–,–

# Reference: publication PMC10860121 (ACS infectious diseases, 2023)
